Here are results for 1 compound from patent US20180116224A1, “PESTICIDAL COMPOSITIONS AND RELATED METHODS” (priority 2015, published 2018).

This assay deals with green peach aphid (Myzus persicae). Kind of assay: pesticidal activity against green peach aphid on cabbage plants after soil treatment. Particulars: for number of live GPA aphids: 6.25 ppm loading, no soil conditioner. The class given is in vivo. The method, then:
Each tested compositions was prepared by mixing a predetermined amount of the CLOSER® SC insecticide (a sulfoxaflor concentrate having a sulfoxaflor concentration of 240 g/L) with a predetermined amount of the organic soil conditioner ACCELL®-STR in an aqueous medium.
The compositions containing different amounts of sulfoxaflor and the organic soil conditioner ACCELL®-STR were prepared as shown in TABLE 1. For example, the “Sulfoxaflor at 6.25 ppm” composition contained about 0.003% weight of sulfoxaflor based on total weight of the composition (i.e., 6.25 ppm of sulfoxaflor per one gram of final soil mixture). “Sulfoxaflor at 6.25 ppm+ACCELL®-STR at 384 ppm” composition contained about 0.003% weight of sulfoxaflor based on total weight of the composition (i.e., 6.25 ppm of sulfoxaflor per one gram of final soil mixture), and about 0.225% weight of the organic soil conditioner ACCELL®-STR based on total weight of the composition (i.e., 384 ppm per one gram of the final soil mixture; 1500 ppm per one gram of the total soil liquid).
The imidacloprid pesticide PROVADO® 1.6 from Bayer CropScience LP (North Carolina, USA) was used as a standard commercial pesticidal composition for aphid control. The imidacloprid pesticide PROVADO® 1.6 was tested at the same loading as that used for the sulfoxaflor, which was 6.25 ppm per gram of final soil mixture.
In this EXAMPLE 4, water was tested as a control composition. Furthermore, an aqueous solution of the organic soil conditioner ACCELL®-STR was tested.
Cabbage plants (Brassica oleracea capitata L) of uniform size (two new leaf stage) infested with green peach aphids (Myzus persicae) (“GPA”) were used as the study models according to the following procedure:
Cabbage seeds were planted in 3-inch pots containing a peat-based METRO MIX 360® potting soil available from SUN GRO® Horticulture Canada, Ltd. The seeds were propagated in greenhouse zone G4, located in the R&D building of Dow AgroSciences (Indianapolis, Ind., USA), at 26° C. with a relative humidity of 53%. Natural light was supplemented with 1,000-watt metal halide overhead lamps with an average illumination of about 500 μE/m^2.s photosynthetic active radiation for 16 consecutive hours each day.
Each of the 1-ounce clear cups was filled with about 30 grams of the inoculated Midwest field soil having the components as shown in TABLE 2. […] The soil moisture of the Midwest field soil was about 15% as measured by Mettler LJ16 Moisture Analyzer (15 minutes and 100° C.).
The Midwest field soil in each selected 1-ounce cup was treated with about 9 mL of the selected composition using a 10 mL pipette. […]
The pesticidal activity against GPA was determined three days after infestation, by counting the number of live GPA aphids present on each cabbage plant. […]

Setting [1] is: dose rate 6.25 ppm sulfoxaflor alone.

`C[C@@H](c1ccc(C(F)(F)F)nc1)[S@](C)(=O)=NC#N` (racemic) [Sulfoxaflor, [methyl(oxo){1-[6-(trifluoromethyl)-3-pyridyl]ethyl}-λ^6-sulfanylidene]cyanamide]: the “number of live GPA aphids” value (DAT of 21 days, counted three days after infestation) is listed as “about 10”. Also, the “number of live GPA aphids” value (DAT of 28 days) is recorded as “about 90”. Also, under setting [1], the “% Control at DAT of 21 days” value is reported as 91.19% and the “% Control at DAT of 28 days” value stood at 0%.
